Experiments:
Assay in all cases: biochemical
Design in all cases: species or system HEK293/K-562/placenta mixed human extract; Kinobeads chemoproteomic competition binding, quantified by TMT LC-MS/MS, dose response up to 20 uM
[1] = target: CAMK2B (Homo sapiens, UniProt Q13554)
[2] = target: CAMKK2 (Homo sapiens, UniProt Q96RR4)
[3] = target: CDK2 (Homo sapiens, UniProt P24941)
[4] = target: CIT (Homo sapiens, UniProt O14578)
[5] = target: CLK2 (Homo sapiens, UniProt P49760)
[6] = target: CSNK2A2 (Homo sapiens, UniProt P19784)
[7] = target: DSTYK (Homo sapiens, UniProt Q6XUX3)
[8] = target: EIF2AK1 (Homo sapiens, UniProt Q9BQI3)
[9] = target: GSK3A (Homo sapiens, UniProt P49840)
[10] = target: IRAK1 (Homo sapiens, UniProt P51617)
[11] = target: JAK1 (Homo sapiens, UniProt P23458)
[12] = target: LIMK2 (Homo sapiens, UniProt P53671)
[13] = target: MAPK8 (Homo sapiens, UniProt P45983)
[14] = target: PDXK (Homo sapiens, UniProt O00764)
[15] = target: PHKG2 (Homo sapiens, UniProt P15735)
[16] = target: PIP4K2B (Homo sapiens, UniProt P78356)
[17] = target: PRKG1 (Homo sapiens, UniProt Q13976)
[18] = target: RPS6KA6 (Homo sapiens, UniProt Q9UK32)
[19] = target: TESK1 (Homo sapiens, UniProt Q15569)
[20] = target: TP53RK (Homo sapiens, UniProt Q96S44)
[21] = target: WEE1 (Homo sapiens, UniProt P30291)

Chain of IRAK1 (P51617 whole entry): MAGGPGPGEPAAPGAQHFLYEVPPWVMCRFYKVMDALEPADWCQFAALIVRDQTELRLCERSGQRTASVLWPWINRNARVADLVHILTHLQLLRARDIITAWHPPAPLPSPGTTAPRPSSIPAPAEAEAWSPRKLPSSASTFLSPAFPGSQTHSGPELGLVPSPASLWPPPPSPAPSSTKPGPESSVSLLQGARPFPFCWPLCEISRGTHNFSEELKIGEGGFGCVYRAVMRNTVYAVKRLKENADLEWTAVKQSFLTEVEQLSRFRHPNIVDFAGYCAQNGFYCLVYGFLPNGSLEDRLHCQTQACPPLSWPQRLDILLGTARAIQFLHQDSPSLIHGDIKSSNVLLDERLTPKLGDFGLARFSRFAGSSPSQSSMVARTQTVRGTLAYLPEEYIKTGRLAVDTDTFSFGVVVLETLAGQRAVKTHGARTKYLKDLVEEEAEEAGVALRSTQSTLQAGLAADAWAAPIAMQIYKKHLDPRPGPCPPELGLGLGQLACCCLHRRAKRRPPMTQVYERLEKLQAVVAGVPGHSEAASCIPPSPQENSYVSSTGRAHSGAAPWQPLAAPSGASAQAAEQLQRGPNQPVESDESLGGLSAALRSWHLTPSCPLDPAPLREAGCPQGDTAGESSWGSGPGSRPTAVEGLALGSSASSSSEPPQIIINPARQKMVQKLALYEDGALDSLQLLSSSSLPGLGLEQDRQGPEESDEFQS
Chain of LIMK2 (P53671 whole entry): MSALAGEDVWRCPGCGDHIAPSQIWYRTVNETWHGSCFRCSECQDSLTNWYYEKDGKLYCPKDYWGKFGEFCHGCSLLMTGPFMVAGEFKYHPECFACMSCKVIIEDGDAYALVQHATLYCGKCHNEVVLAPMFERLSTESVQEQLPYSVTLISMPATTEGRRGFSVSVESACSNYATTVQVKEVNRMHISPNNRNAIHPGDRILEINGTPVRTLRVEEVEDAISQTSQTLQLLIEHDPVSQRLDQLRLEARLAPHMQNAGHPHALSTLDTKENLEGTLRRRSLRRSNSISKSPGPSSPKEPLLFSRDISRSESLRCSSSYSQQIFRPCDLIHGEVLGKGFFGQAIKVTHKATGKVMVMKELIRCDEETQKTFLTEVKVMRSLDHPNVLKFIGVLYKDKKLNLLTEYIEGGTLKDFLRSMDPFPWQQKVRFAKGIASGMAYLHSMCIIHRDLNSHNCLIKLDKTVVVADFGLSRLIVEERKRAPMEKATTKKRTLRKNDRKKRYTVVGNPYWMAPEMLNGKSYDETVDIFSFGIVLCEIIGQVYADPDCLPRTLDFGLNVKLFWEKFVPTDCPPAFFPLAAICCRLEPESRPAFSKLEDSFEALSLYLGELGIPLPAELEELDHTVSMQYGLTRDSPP
Chain of CIT (O14578 whole entry): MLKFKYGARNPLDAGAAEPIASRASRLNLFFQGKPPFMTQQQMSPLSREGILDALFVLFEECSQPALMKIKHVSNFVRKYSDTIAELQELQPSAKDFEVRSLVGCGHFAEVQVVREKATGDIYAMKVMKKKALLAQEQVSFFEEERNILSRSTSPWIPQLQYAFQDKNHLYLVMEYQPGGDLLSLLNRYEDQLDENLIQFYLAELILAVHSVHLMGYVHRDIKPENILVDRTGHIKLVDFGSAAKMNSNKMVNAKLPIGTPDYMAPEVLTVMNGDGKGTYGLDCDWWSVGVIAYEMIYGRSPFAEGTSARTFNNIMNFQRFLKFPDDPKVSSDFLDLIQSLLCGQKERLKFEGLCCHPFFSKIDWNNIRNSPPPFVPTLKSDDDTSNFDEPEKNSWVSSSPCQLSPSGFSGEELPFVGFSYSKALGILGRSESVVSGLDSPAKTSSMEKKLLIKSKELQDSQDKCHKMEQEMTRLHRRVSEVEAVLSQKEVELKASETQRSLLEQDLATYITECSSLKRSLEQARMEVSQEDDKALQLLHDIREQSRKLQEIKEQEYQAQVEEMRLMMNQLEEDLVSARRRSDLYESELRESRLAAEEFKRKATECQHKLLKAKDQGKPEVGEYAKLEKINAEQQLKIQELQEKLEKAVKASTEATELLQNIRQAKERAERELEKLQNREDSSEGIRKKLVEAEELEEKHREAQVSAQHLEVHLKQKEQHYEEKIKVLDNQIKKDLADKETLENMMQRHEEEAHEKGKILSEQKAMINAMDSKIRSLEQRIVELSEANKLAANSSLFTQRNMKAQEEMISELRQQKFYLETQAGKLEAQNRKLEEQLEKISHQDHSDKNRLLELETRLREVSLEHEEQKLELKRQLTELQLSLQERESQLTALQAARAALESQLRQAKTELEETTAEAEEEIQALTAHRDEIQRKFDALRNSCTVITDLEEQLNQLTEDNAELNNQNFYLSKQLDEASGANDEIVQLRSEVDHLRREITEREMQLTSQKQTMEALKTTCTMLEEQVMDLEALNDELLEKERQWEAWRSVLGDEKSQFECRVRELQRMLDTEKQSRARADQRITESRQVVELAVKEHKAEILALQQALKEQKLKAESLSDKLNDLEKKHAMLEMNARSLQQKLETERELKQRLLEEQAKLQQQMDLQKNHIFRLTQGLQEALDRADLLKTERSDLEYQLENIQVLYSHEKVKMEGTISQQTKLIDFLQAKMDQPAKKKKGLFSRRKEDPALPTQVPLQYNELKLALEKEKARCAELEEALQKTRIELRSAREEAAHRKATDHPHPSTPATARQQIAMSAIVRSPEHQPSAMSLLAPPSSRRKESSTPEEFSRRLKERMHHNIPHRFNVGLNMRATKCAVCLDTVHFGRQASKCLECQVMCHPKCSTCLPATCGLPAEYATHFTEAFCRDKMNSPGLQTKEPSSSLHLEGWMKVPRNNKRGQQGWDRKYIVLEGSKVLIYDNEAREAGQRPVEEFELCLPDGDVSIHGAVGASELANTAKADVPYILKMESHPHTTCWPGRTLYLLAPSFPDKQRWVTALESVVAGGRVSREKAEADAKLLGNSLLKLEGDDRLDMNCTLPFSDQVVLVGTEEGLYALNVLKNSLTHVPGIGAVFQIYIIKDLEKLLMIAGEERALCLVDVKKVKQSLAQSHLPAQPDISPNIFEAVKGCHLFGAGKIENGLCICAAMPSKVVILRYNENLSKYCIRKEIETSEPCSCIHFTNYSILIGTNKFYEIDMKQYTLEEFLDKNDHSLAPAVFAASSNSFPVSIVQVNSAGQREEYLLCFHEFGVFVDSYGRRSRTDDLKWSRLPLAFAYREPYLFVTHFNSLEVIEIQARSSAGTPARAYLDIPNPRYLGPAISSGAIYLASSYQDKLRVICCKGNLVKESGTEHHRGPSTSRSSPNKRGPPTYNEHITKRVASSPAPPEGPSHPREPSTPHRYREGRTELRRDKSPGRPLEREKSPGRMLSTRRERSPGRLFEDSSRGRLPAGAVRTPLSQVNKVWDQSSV
Chain of PIP4K2B (P78356 whole entry): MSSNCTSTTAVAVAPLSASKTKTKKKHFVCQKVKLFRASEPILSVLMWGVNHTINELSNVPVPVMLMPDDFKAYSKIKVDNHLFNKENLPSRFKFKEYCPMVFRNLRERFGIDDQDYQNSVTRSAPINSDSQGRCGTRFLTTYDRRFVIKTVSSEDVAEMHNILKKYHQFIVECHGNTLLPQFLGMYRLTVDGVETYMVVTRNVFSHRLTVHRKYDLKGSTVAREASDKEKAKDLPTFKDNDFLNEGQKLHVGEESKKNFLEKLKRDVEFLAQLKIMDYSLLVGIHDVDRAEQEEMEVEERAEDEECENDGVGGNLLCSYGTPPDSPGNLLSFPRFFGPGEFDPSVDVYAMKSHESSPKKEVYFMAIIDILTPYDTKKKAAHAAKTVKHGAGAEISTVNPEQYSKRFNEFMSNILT
Chain of GSK3A (P49840 whole entry): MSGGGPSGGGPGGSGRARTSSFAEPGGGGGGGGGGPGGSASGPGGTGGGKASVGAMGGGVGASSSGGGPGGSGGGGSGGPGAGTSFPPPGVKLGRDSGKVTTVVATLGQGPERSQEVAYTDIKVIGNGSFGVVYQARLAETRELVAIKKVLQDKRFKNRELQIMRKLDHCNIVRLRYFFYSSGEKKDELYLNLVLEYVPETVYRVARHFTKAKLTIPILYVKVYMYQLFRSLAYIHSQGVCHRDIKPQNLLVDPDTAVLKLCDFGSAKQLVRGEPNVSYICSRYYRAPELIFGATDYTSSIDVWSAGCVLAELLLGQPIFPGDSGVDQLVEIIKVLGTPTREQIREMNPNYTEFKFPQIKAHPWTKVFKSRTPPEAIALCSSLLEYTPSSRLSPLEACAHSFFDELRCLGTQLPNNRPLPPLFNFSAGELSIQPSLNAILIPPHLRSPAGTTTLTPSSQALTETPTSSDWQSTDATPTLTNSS
Chain of CAMKK2 (Q96RR4 whole entry): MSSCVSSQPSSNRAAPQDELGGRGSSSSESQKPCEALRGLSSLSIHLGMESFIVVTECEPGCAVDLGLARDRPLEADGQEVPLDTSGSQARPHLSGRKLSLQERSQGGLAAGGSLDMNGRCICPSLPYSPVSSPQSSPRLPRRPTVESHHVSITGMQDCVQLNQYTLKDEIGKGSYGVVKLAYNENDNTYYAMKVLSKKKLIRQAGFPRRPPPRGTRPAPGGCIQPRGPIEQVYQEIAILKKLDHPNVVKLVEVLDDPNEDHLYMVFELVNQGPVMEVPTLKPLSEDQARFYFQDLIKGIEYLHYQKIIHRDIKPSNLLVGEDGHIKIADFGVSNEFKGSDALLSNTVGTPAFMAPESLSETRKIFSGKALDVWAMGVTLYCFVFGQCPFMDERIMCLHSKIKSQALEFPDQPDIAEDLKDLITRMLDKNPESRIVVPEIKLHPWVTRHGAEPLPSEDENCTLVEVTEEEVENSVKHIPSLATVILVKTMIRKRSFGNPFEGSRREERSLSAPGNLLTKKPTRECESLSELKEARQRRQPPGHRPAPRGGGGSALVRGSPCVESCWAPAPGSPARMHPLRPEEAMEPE

COc1nc(N[C@H]2CC[C@H](NS(=O)(=O)CC(C)C)CC2)nc2[nH]nc(N3CCOC[C@H]3C)c12 [compound 39, N-(trans-4-((4-Methoxy-3-((R)-3-methylmorpholino)-1H-pyrazolo[3,4-d]pyrimidin-6-yl)amino)cyclohexyl)-2-methylpropane-1-sulfonamide]
IC50 [1]: ≥ 20 µM
IC50 [2]: ≥ 20 µM
IC50 [3]: 4.5 µM
IC50 [4]: ≥ 20 µM
IC50 [5]: ≥ 20 µM
IC50 [6]: ≥ 20 µM
IC50 [7]: ≥ 20 µM
IC50 [8]: ≥ 20 µM
IC50 [9]: ≥ 20 µM
IC50 [10]: ≥ 20 µM
IC50 [11]: ≥ 20 µM
IC50 [12]: ≥ 20 µM
IC50 [13]: ≥ 20 µM
IC50 [14]: ≥ 20 µM
IC50 [15]: ≥ 20 µM
IC50 [16]: ≥ 20 µM
IC50 [17]: ≥ 20 µM
IC50 [18]: ≥ 20 µM
IC50 [19]: ≥ 20 µM
IC50 [20]: ≥ 20 µM
IC50 [21]: ≥ 20 µM
